Results from article PMC9945182 (Chemical Research in Toxicology, 2023).
Read-outs that look alike come from different tables or passages of the source.

Tests used:
CYP2B6 = molecular target: T1, CYP2B6 (Homo sapiens, UniProt P20813); format: biochemical; settings: for inhibition of cotinine formation: nicotine substrate, CYP2B6 microsomes
T1 sequence (P20813 1-491): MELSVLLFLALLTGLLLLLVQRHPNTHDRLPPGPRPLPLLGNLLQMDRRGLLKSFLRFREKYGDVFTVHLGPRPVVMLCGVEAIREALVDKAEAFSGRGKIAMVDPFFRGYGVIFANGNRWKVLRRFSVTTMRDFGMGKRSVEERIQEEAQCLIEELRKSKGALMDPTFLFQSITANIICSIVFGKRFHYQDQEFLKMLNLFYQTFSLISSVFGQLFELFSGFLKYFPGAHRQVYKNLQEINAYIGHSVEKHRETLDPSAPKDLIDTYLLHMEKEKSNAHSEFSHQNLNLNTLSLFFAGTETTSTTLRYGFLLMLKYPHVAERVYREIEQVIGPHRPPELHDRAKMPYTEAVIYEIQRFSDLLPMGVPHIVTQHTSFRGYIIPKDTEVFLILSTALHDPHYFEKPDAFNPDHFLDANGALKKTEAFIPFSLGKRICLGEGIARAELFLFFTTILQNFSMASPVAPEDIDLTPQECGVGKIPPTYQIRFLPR

CYP2A6 [1] = molecular target: T2, CYP2A6 (Homo sapiens, UniProt P11509); format: biochemical; settings: for decrease of 3HC formation: cotinine substrate, CYP2A6 microsomes; for IC50: cotinine 100 μM, rec CYP2A6 microsomes
T2 sequence (P11509 1-494): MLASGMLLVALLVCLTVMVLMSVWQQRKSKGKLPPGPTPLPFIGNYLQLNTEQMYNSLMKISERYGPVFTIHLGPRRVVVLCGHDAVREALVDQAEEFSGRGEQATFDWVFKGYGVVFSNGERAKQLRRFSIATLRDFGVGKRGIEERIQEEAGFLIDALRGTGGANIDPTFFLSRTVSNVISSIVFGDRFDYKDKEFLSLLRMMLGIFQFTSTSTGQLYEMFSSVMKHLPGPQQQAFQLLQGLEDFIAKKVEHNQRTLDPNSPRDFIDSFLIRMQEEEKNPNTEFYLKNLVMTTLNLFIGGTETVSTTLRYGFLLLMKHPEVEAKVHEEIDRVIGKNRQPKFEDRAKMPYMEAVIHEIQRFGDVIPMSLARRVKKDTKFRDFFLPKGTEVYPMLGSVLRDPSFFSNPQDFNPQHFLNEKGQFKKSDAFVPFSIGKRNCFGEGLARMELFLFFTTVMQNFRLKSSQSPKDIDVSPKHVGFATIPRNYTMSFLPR

FMO3 = molecular target: T3, FMO3 (Homo sapiens, UniProt P31513); format: biochemical; settings: 1 or 10 μM cannabinoid; nicotine 1 mM; FMO3 microsomes
T3 sequence (P31513 1-532): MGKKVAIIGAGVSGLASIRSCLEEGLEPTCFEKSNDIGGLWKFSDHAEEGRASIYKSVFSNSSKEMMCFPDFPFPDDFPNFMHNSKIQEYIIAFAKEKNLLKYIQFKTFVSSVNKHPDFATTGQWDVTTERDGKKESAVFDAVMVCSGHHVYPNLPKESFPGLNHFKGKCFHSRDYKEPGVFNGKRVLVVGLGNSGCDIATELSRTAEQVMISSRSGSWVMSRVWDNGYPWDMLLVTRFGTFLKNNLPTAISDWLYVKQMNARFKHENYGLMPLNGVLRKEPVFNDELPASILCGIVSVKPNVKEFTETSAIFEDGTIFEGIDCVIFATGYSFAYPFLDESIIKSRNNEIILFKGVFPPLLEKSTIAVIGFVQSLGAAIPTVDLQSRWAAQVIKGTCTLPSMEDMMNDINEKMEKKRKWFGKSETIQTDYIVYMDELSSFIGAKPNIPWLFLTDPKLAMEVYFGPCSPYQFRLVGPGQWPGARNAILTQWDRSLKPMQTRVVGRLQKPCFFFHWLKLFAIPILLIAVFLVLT

CYP2A6 [2] = molecular target: T2, CYP2A6; format: biochemical; settings: 10 μM inhibitor; cotinine substrate; CYP2A6 microsomes
UGT2B10 [3] = molecular target: T4, UGT2B10 (Homo sapiens, UniProt P36537); format: biochemical; settings: UGT2B10 microsomes; nicotine or cotinine as substrate; screening
T4 sequence (P36537 24-528): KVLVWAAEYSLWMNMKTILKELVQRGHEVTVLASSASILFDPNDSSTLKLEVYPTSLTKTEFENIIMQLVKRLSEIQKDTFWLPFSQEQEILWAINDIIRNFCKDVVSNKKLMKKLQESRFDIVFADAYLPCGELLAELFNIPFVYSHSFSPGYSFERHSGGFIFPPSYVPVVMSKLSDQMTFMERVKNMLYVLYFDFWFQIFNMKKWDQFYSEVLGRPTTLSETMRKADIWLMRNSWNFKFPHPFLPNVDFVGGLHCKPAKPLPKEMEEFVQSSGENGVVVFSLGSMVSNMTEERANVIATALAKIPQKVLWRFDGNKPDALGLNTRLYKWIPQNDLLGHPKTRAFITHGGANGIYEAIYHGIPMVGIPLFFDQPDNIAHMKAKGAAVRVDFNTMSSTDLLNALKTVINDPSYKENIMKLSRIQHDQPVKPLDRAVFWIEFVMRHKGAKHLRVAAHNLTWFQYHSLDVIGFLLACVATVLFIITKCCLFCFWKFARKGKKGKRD

UGT1A9 = molecular target: T5, UGT1A9 (Homo sapiens, UniProt O60656); format: biochemical; settings: 3HC 30 mM; for decrease in 3HC-Gluc formation: UGT1A9 microsomes; for IC50: rec UGT1A9 microsomes
T5 sequence (O60656 26-530): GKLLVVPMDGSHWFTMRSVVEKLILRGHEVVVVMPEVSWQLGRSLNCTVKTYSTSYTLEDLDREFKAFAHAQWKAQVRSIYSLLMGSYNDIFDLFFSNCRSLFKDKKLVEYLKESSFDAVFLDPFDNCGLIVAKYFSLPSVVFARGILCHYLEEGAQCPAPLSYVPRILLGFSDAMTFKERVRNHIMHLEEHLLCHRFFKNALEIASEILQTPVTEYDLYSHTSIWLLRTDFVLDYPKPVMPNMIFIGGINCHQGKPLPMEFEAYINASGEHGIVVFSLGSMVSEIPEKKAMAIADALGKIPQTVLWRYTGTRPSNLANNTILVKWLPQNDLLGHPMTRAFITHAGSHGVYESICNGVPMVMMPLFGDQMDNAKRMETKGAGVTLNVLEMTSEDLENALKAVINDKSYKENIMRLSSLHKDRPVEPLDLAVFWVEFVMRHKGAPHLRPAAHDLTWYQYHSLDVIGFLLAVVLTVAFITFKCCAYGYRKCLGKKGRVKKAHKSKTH

UGT2B10 [4] = molecular target: T4, UGT2B10; settings: previous studies; cited from earlier work
[5] = human, microsomes from CYP2B6-overexpressing HEK293 cells, pH 7.4, probe nicotine (cotinine formation)

With `C=C(C)[C@@H]1CCC(CO)=C[C@H]1c1c(O)cc(CCCCC)cc1O` [7-OH-CBD, 7-hydroxy-cannabidiol] the “inhibition of cotinine formation” value (CYP2B6; 1 μM inhibitor) was 35%, the “inhibition of cotinine formation” value (CYP2B6; 10 μM inhibitor) was 50% and the IC50 (CYP2B6; cotinine formation, nicotine 500 μM, rec CYP2B6 microsomes) was 15 ± 5.7 µM. For the same compound, the “decrease of 3HC formation” value (CYP2A6 [1]; 1 μM inhibitor) was 45%, the “decrease of 3HC formation” value (CYP2A6 [1]; 10 μM inhibitor) was 65% and the IC50 (CYP2A6 [1]; 3HC formation) was 10 ± 3 µM. The IC50 (CYP2A6 [1]; read-out: IC50,u (binding-corrected IC50), 3HC formation, IC50 × fu,inc) was 0.78 ± 0.23 µM, the “inhibitory effect on NOX formation” value (FMO3) was “No inhibitory effect” and the “inhibition of COX formation” value (CYP2A6 [2]) was 40%. For the same compound, the “inhibition of nicotine-Gluc or cotinine-Gluc formation” value (UGT2B10 [3]) was “no significant inhibition”.

For `C=C(C)[C@@H]1CCC(C)=C[C@H]1c1c(O)cc(CCCCC)cc1O` [CBD, cannabidiol], the IC50 (CYP2B6) was 4.2 ± 2.7 µM, the inhibition at 30 min, 1 µM (CYP2B6; [5]) was 50% and the inhibition at 30 min, 10 µM (CYP2B6; [5]) was 65%. The “decrease of 3HC formation” value (CYP2A6 [1]; 1 μM inhibitor) was 55%, the “decrease of 3HC formation” value (CYP2A6 [1]; 10 μM inhibitor) was 60% and the IC50 (CYP2A6 [1]; IC50, 3HC formation) was 3.4 ± 2.3 µM. For the same compound, the IC50 (CYP2A6 [1]; IC50,u (binding-corrected IC50), 3HC formation, IC50 × fu,inc) was 0.21 ± 0.14 µM, the “decrease in 3HC-Gluc formation” value (UGT1A9; 1 μM CBD) was 55% and the “decrease in 3HC-Gluc formation” value (UGT1A9; 10 μM CBD) was 65%. For the same compound, the IC50 (UGT1A9; IC50, 3HC-Gluc formation, 2% BSA) was 9.7 ± 1.5 µM, the IC50 (UGT1A9; IC50,u (binding-corrected IC50), 3HC-Gluc formation, IC50 × fu,inc) was 0.37 ± 0.06 µM and the “inhibitory effect on NOX formation” value (FMO3) was “No inhibitory effect”. For the same compound, the “inhibition of nicotine-Gluc or cotinine-Gluc formation” value (UGT2B10 [3]) was “no significant inhibition” and the “inhibition of nicotine-Gluc formation by UGT2B10” value (UGT2B10 [4]) was “does not inhibit”.
